Earlier results in patent US8569271B2 (Laboratorios del Dr. Esteve, S.A., priority 2009, dated 2013).

In the case of `Cc1ccc(-c2cc(C(F)(F)F)nn2-c2ccc(S(N)(=O)=O)cc2)cc1` [celecoxib, 4-[5-(4-methylphenyl)-3-(trifluoromethyl)-pyrazol-1-yl]-benzenesulfonamide], the solubility in water is given as “only slightly soluble in water”.
